# What was measured:
# [1] = system: palmar fibromatosis (Dupuytren's contracture); assay: Clinical treatment of patients with palmar fibromatosis (Dupuytren's contracture) with oral Accutane: initial dosage then maintenance dosage; type: in vivo, human
# Experimental: (§1) Example 1 to 3 illustrate clinical effectiveness of the above described treatment method. An initial treatment and a maintenance treatment as described above were prescribed to the patients. It is noted that the patients described in the Examples were in the average weight range, therefore, an average dosage of 40 mg was used.
# (§2) The patient was treated with orally administering Accutane® (Hoffmann-La Roche Inc., Nutley, New Jersey) about 40 mg daily for 14 days. Then the dosage was decreased to a maintenance dosage of 40 mg about twice a week for twelve months.
# (§3) The patient was treated with orally administering Accutane® about 40 mg daily for 14 days. Then the dosage was decreased to 40 mg about twice a week for eight months.
# (§4) The patient was placed on Accutane® 40 mg daily for two weeks.
# [2] = Side effects, tolerability and laboratory values during the clinical treatment of palmar fibromatosis patients; type: in vivo, human
# Experimental: as §1, §2, §3, §4
# [3] = Example 2 patient, eight months of therapy
compound,measurement,setting,value
"CC1=C(/C=C/C(C)=C/C=C/C(C)=C\C(=O)O)C(C)(C)CCC1 [Accutane, 13-cis retinoic acid]",dimple overhead of the third methocarpal bone,"[1]; Example 1 patient, both hands, after twelve months of therapy",disappeared
same,"fibrotic band, right hand","[1]; Example 1 patient, middle finger, 4 mm before treatment, 40 mg daily 14 days, then 40 mg about twice a week, after twelve months",2 mm
same,"fibrotic band, left hand","[1]; Example 1 patient, middle finger, oral 40 mg daily for 14 days, then 40 mg about twice a week, after twelve months",completely disappeared
same,pain and tenderness in the flexor tendon area of the hands,"[1]; Example 1 patient, patient-described, after twelve months of therapy",completely abated
same,range of fixed flexion of the left middle finger,"[1]; Example 1 patient, 7 degree before treatment as printed, after twelve months of therapy",none
same,fixed flexion of the right middle finger,"[1]; Example 1 patient, fixed 15 degree before treatment as printed, after twelve months of therapy",3 degree
same,fibrotic ridge of the left hand,"[1]; Example 2 patient, advanced disease, 40 mg daily 14 days, then 40 mg about twice a week for eight months",reduced in scope and size
same,ring finger's disposition from the flexed position,"[1]; Example 2 patient, left hand, about 90 degree before treatment, eight months of therapy",about 70 degree
same,tenderness of the left hand caused by the contracture,"[1]; Example 2 patient, patient-reported, eight months of therapy",less tender
same,tenderness in the flexor tendon area,"[1]; Example 3 patient, patient-described, nine months of treatment",less tenderness
same,thickness of the fibrotic band,"[1]; Example 3 patient, right hand, 40 mg daily two weeks, then 40 mg about twice a week for nine months",reduced
same,restriction of extension of the ring finger,"[1]; Example 3 patient, right hand, nine months of treatment",lessened
same,deflection of the right hand ring finger,"[1]; Example 3 patient, 30 degree before treatment, nine months of treatment",20 degree
same,further progression of the contracture,[1]; patients with either early stage disease or advanced conditions (general statement),inhibits further progression of the contracture
same,adverse side effects,"[2]; Example 1 patient, 40 mg daily 14 days, then 40 mg about twice a week for twelve months",No adverse side effects were noted other than drying of lips
same,blood chemistries,"[2]; Example 1 patient, low maintenance dosage",remained normal
same,laboratory abnormality,[2]; [3],No laboratory abnormality was observed
same,musculoskeletal pain,[2]; [3],"some musculoskelatal pain, which diminished after the third month of the treatment"
same,tolerability,"[2]; Example 2 patient, lower maintenance dosage",well tolerated
same,serious adverse side effects,"[2]; patients diagnosed with Dupytren's contracture, described treatment (general statement)",no serious adverse side effects were observed
